# Test results reported in PubChem BioAssay AID463206 (Broad Institute, 2010).
# Active and inactive are the calls of the source.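 The calls were made as follows: active = caspase luminescence falls with dose and the half-maximal concentration AC50 from the fitted curve is at or below a set limit; inconclusive = flat fit at 30 to 70% signal loss, or invalid fit; inactive = AC50 above the limit, or signal rises instead.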
# Tested on: INS-1E cytokine-induced caspase-3/7, Caspase-Glo luminescence, 48 h
# Experiment: suppression of cytokine-driven beta-cell apoptosis – INS-1E rat cells, luminescence, orthogonal assay for beta-cell apoptosis protection project, dose response (AID 463206)
row,Structure (SMILES),AC50
1,CC(Oc1cccc(Cl)c1)C(=O)Nc1cc(S(=O)(=O)N2CCOCC2)ccc1N1CCCCC1 (stereo not given),> 26 µM (inactive)
2,Nc1ccccc1N=Cc1c(O)n(CCC2=CCCCC2)c(=O)[nH]c1=O,> 26 µM (inactive)
3,O=C(/C=C/c1ccc(F)cc1)NC(=S)NNC(=O)c1cnccn1,> 26 µM (inactive)
4,N=c1c2c(-c3ccccc3)c(-c3ccccc3)n(Cc3ccco3)c2ncn1CCCN1CCOCC1,16.7 µM
5,COc1ccc(/C=N/Nc2cc(C)nc(-n3nc(C)cc3C)n2)c(OC)c1,> 26 µM (inactive)
6,CC(C)(C)c1cc([N+](=O)[O-])cc(C(C)(C)C)c1O,> 26 µM (inactive)
7,Nc1c(Cl)ncnc1N/N=C/c1ccccn1,> 26 µM (inactive)
8,Cc1ccc(-c2csc(NC(=O)c3c(C)noc3C)n2)s1,> 26 µM (inactive)
9,COc1ccc(S(=O)(=O)/N=C2\C=C(Nc3ccc(O)cc3)C(=O)c3ccccc32)cc1,> 26 µM (inactive)
10,CCc1ccc(-n2c(C)cc(/C=N/NC(=O)c3ccncc3)c2C)cc1,> 26 µM (inactive)
11,COc1ccc(/C=C/C(=O)c2ccc([N+](=O)[O-])o2)cc1OC,> 26 µM (inactive)
12,CC(C)(C)c1ccc(-n2ncc3c2CCCC3NC(=O)C2(C(N)=O)CC2)cc1 (stereo not given),> 26 µM (inactive)
13,O=S(=O)(c1ccc(NC(=S)NCc2cccnc2)cc1)N1CCCCC1,> 26 µM (inactive)
14,O=[N+]([O-])c1ccccc1-c1cc(-c2ccccc2)cc(-c2ccccc2)[n+]1Cc1ccccc1Cl,> 26 µM (inactive)
15,Fc1ccccc1N=C1NN=C(c2ccccc2)CS1,> 26 µM (inactive)
16,O=C(c1ccc([N+](=O)[O-])s1)N1CCN(c2cccc(Cl)c2)CC1,> 26 µM (inactive)
17,COCCCNC(=S)N/N=C/c1cccc(OC)c1O,> 26 µM (inactive)
18,C=CCn1c(=NC(=O)c2cc(-c3cccs3)nc3ccccc23)sc2cc(S(N)(=O)=O)ccc21,> 26 µM (inactive)
19,CCCC(=O)NC(NC(=S)Nc1ccc(N=Nc2ccccc2)cc1)C(Cl)(Cl)Cl (stereo not given),> 26 µM (inactive)
20,Cc1cc(C)c2nc(NNC(=O)c3ccc(S(=O)(=O)N4CCc5ccccc5C4)cc3)sc2c1,> 26 µM (inactive)
21,Cc1cccc(C(=O)Nc2ccc(C(=O)/C=C/c3cccnc3)cc2)c1,> 26 µM (inactive)
22,COc1ccccc1N1CCN(c2ncc(C(=O)N3CCN(c4cccc(Cl)c4)CC3)c3ccccc23)CC1,> 26 µM (inactive)
23,C/C(=N\NC(=O)c1cccc(Br)c1)c1ccccn1,> 26 µM (inactive)
24,CN1/C(=C\C(=S)NC(=O)c2ccccc2Cl)C(C)(C)c2ccccc21,> 26 µM (inactive)

row,Structure (SMILES),AC50
1,C/C(=N/NC(=O)c1ccc(C(C)(C)C)cc1)c1ccccn1,> 26 µM (inactive)
2,CC[N+]1=C(C)C(C)(C)c2cc(C)ccc21,> 26 µM (inactive)
3,NS(=O)(=O)c1ccc(N/N=C/c2cn(-c3ccccc3)nc2-c2cccs2)c([N+](=O)[O-])c1,19 µM
4,c1ccc2c(c1)ncn2CCCOc1ccc2c(c1)CCC2,> 26 µM (inactive)
5,CC1CC(=O)c2c(cc3c(-c4c(O)cc(O)c5c(O)c6c(cc45)OC(C)CC6=O)c(O)cc(O)c3c2O)O1 (stereo not given),> 26 µM (inactive)
6,Cn1c(-c2ccccc2)cc2c3no[n+]([O-])c3ccc21,> 26 µM (inactive)
7,CC(=O)c1ccccc1OCCOCCOc1ccccc1C(C)=O,> 26 µM (inactive)
8,CCOc1cc(S(=O)(=O)NCc2ccncc2)ccc1Cl,> 26 µM (inactive)
9,O=C(Nc1ccc(F)cc1)Nc1cc(OCC(F)(F)F)cc(OCC(F)(F)F)c1,> 26 µM (inactive)
10,Oc1ccc(Br)cc1/C=N/Nc1ccccn1,> 26 µM (inactive)
11,CCOc1cc(-c2sc(Nc3cc(C)ccc3OC)n[n+]2-c2ccccc2)ccc1OC,> 26 µM (inactive)
12,CC(=O)Oc1ccc(N(C(C)=O)S(=O)(=O)c2cccs2)c2ccccc12,> 26 µM (inactive)
13,Cc1occc(=O)c1OC(=O)Nc1ccc(Cl)c(Cl)c1,> 26 µM (inactive)
14,CCN(CC)c1ccc(/C=N/NC(=O)c2cnccn2)c(O)c1,> 26 µM (inactive)
15,O=C(/C=C/c1cccc(Cl)c1)c1ccc([N+](=O)[O-])o1,> 26 µM (inactive)
16,Cc1cc(C)nc(SCC(=O)NC2=NN=C(c3ccc(Br)cc3)CS2)n1,> 26 µM (inactive)
17,CCOc1ccc(N=Cc2c(C)[nH]n(-c3nc4ccccc4[nH]3)c2=O)cc1,> 26 µM (inactive)
18,CCCN(CCC)C(=O)c1cc([N+](=O)[O-])cc2c1-c1ccc([N+](=O)[O-])cc1C2=C(C#N)C#N,> 26 µM (inactive)
19,Cn1c(NN=O)nc2ccccc21,> 26 µM (inactive)
20,COc1ccc(C2=Nn3c([n+](C)c4ccccc43)SC2)cc1,> 26 µM (inactive)
21,Cc1ccc(-c2nn(-c3ccccc3)cc2/C=C/C(=O)Nc2cccc(S(N)(=O)=O)c2)cc1,> 26 µM (inactive)
22,CCc1cc(C(=O)NC2CCCc3c2cnn3-c2cccc(C)c2C)n(C)n1 (stereo not given),> 26 µM (inactive)
23,COC(=O)C1=C(C)N(Cc2ccccc2)C(=NCc2cccc(Cl)c2)N[C@H]1c1cccc(F)c1,> 26 µM (inactive)
24,CS(=O)(=O)c1ncc(Cl)c(C(=O)Nc2ccc(OC(F)F)cc2)n1,> 26 µM (inactive)

row,Structure (SMILES),AC50
1,COc1cc(OC)c(NC2=CC(=O)C(=O)c3ccccc32)cc1Cl,> 26 µM (inactive)
2,O=C(NCc1ccncc1)c1cc(-c2ccc(Cl)cc2)oc1C(F)(F)F,> 12 µM (inactive)
3,CC(C)(C)c1cnnn1-c1ccc(/C=N/Nc2ccc([N+](=O)[O-])cc2)cc1,> 26 µM (inactive)
4,O=C(NC(NC(=S)Nc1ccccc1)C(Cl)(Cl)Cl)c1cccc(Cl)c1 (stereo not given),> 26 µM (inactive)
5,CCCCCCCCNC(C)C(O)c1ccc(SC(C)C)cc1 (stereo not given),> 26 µM (inactive)
6,C/C(=N\NC(=O)c1cc(-c2cccs2)nc2ccccc12)c1ccccn1,> 26 µM (inactive)
7,COCc1ccc(O)c2ncccc12,> 26 µM (inactive)
8,CC(C)(C)c1cc(C(=O)N/N=C/c2ccccc2O)n(-c2ccccc2)n1,> 26 µM (inactive)
9,C/C(=N\NC(=O)c1ccccc1NC(=O)c1ccc(Cl)cc1)c1ccncc1,> 26 µM (inactive)
10,S=C(Nc1ccc(Nc2ccccc2)cc1)Nc1ccccn1,> 26 µM (inactive)
11,C=C1C(=O)O[C@@H]2C[C@@H](C)[C@@H]3C=CC(=O)[C@@]3(C)[C@@H](OC(C)=O)[C@H]12,> 26 µM (inactive)
12,O=c1c2ccccc2nc(COc2ccccc2)n1/N=C/c1ccc(O)cc1O,> 26 µM (inactive)
13,Cn1c2c(c(=O)n(C)c1=O)C(C(F)(F)F)(C(F)(F)F)N=C(c1ccc(Cl)cc1)N2,> 26 µM (inactive)
14,Cc1nc2c(-c3ccc(Cl)cc3)c(C)[nH]n2c(=O)c1Cc1ccccc1,> 26 µM (inactive)
15,Cc1cc(C(C)(C)C)cc(C)c1Cn1c2[n+](c3ccc(C(F)(F)F)cc31)CCCCC2,> 26 µM (inactive)
16,Cc1ccc2ccc3cccnc3c2n1,> 26 µM (inactive)
17,CC(C)(C)Sc1ccc2nc3c(n2c1)CCCC3,> 26 µM (inactive)
18,C[C@@H]1CN([C@H](C)CO)C(=O)c2cc(NC(=O)Nc3ccc(C(F)(F)F)cc3)ccc2O[C@H]1CN(C)S(=O)(=O)c1cccs1,> 26 µM (inactive)
19,CNc1nc(N)c([N+](=O)[O-])c(Nc2cccc(F)c2)n1,> 26 µM (inactive)
20,COC(=O)c1c(C)oc2ccc(N(C(=O)c3ccncc3)S(=O)(=O)c3ccc(C)cc3C)cc12,> 26 µM (inactive)
21,C/C(=N\NC(=O)c1ccc(F)cc1)c1ccccn1,> 26 µM (inactive)
22,O=C(Nc1ccc(C(F)(F)F)cc1)C1CCN(S(=O)(=O)c2ccc(N3CCCC3=O)cc2)CC1,> 26 µM (inactive)
23,COc1ccc(CNCCC(c2ccc(OC(C)C)cc2)C(C)C)cc1OC (stereo not given),> 26 µM (inactive)
24,CC1=NNC(=O)/C1=C\c1cn(-c2ccccc2)nc1-c1ccc(Cl)cc1,> 26 µM (inactive)

row,Structure (SMILES),AC50
1,Cc1nc2ccccc2c(=O)n1/N=C/c1c(O)ccc2ccccc12,> 26 µM (inactive)
2,Clc1ccc(C(Cn2ccnc2)OCc2csc3c(Cl)cccc23)c(Cl)c1 (stereo not given),> 26 µM (inactive)
3,CCN(CC)c1ccc(/C=N/NC(=O)c2nnn(-c3nonc3N)c2C(C)C)c(O)c1,> 26 µM (inactive)
4,CC1CCc2c(sc3nc(C4CC4)nc(N4CCN(C(=O)c5ccco5)CC4)c23)C1 (stereo not given),> 26 µM (inactive)
5,CCn1cc(C(=O)O)c(=O)c2cc(F)c(N/N=C/c3ccccc3[N+](=O)[O-])cc21,> 12 µM (inactive)
6,Cc1sc2ncnc(NCC3COc4ccccc4O3)c2c1C (stereo not given),> 26 µM (inactive)
7,Cc1onc(-c2c(Cl)cccc2Cl)c1C(=O)N/N=C(\N)COc1ccc(Cl)cc1,> 26 µM (inactive)
8,Cc1ccc(-n2c(-c3ccccc3)c[n+]3c2CCc2ccccc2-3)c(C)c1,> 26 µM (inactive)
9,CC[C@]1(c2ccccc2OC)ON(c2ccccc2C(F)(F)F)C1=O,> 26 µM (inactive)
10,Cc1csc2ncnc(N3CCN(S(=O)(=O)c4cccc(C(F)(F)F)c4)CC3)c12,> 26 µM (inactive)
11,CCOC(=O)CC1CCCCN1C(=O)c1cc(COc2cccc3cnccc23)on1 (stereo not given),> 26 µM (inactive)
12,CC1=C(CC(=O)c2ccc(Cl)cc2)C(=O)c2ccccc2C1=O,> 26 µM (inactive)
13,Cc1cccc(CNc2ncnc3ccc(-c4ccc5c(c4)OCCO5)cc23)c1,> 26 µM (inactive)
14,CCN(CC)CCn1nc2c3c(cccc3c1=O)-c1ccccc1-2,8.24 µM
15,N=c1c2c(n(Cc3cccc(Cl)c3)c3c1CCC3)CCCC2,> 26 µM (inactive)
16,COc1ccc2c(c1)c(/C=N/Nc1nc3ccccc3[nH]1)c(C)n2C,> 26 µM (inactive)
17,O=C(/C(N=Nc1cccc([N+](=O)[O-])c1)=C(/O)c1ccc(Br)cc1)C(F)(F)F,> 26 µM (inactive)
18,CCN(CC)S(=O)(=O)c1cc(OC)ccc1N=Nc1ccc(O)c2ncccc12,> 26 µM (inactive)
19,Cc1csc2c(N3CCN(C(=O)c4ccc(C(C)(C)C)cc4)CC3)ncnc12,> 26 µM (inactive)
20,CN(C)CC(C(=O)c1ccccc1)c1ccccc1 (stereo not given),> 26 µM (inactive)
21,C(=N\Nc1nncc2ccccc12)/c1ccccn1,> 26 µM (inactive)
22,c1ccc(/N=C2\N=C(Nc3ccccn3)c3ccccc32)nc1,> 26 µM (inactive)
23,CC[C@@]1(O)C(=O)OCc2c1cc1n(c2=O)Cc2cc3c(N)cccc3nc2-1,0.36 µM
